Calls of active or inactive are those of the source. No rule for the calls is given here.
Target: Nuclear receptor coactivator 3 (Homo sapiens) (UniProt Q9Y6Q9)
Assay: SRC3 coactivator transcriptional activity inhibitors, dose response, cell-based, luminescence (AID 602166);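 also: potency for reduction of SRC3 reporter signal so compounds are inhibitors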
Settings: SRC3 luciferase reporter cell assay

Sequence of Nuclear receptor coactivator 3 (Homo sapiens) (Q9Y6Q9 whole entry, looked up): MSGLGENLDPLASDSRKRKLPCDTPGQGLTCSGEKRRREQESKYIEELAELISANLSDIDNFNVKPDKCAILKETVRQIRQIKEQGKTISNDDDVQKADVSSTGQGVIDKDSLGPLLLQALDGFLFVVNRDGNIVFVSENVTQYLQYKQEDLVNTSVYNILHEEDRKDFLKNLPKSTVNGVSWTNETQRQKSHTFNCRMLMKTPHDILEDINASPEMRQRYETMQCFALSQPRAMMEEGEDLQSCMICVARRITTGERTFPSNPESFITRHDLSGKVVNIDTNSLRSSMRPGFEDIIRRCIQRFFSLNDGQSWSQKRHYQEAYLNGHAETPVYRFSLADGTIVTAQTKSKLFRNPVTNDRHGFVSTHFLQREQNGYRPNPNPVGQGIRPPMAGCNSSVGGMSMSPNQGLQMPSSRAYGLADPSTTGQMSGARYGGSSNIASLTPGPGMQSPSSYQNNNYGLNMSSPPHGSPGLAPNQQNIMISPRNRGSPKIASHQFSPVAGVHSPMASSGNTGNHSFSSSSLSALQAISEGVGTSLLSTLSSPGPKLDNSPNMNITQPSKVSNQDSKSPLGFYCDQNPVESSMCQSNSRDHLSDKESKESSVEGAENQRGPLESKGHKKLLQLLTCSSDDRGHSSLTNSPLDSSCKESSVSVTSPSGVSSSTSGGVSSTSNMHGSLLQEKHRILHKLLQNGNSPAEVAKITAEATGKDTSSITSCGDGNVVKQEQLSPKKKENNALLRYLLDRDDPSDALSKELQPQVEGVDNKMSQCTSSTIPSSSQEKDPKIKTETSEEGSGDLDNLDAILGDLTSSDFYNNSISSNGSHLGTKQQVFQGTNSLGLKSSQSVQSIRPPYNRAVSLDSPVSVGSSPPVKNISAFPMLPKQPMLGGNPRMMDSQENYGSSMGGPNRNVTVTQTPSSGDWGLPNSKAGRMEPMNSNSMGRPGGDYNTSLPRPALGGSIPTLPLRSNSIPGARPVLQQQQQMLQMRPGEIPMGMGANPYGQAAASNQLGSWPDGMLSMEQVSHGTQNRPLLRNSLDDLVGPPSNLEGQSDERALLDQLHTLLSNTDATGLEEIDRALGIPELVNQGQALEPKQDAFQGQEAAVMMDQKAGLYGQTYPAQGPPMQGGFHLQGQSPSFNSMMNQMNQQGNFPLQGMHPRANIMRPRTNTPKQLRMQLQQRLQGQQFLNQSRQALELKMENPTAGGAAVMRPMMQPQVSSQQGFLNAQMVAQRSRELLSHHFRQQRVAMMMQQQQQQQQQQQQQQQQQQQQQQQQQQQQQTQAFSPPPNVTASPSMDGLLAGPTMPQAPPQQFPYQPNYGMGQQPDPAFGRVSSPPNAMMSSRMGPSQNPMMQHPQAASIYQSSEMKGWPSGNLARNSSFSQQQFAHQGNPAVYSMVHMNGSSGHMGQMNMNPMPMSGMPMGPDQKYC

Compound	IC50
Cc1ccc2nc(-c3ccncc3)c(NC3CCCC3)n2c1	inactive
O=C(N/N=C\c1ccc([N+](=O)[O-])s1)c1cncc(Br)c1	5.46 µM
C=CCn1c(C)cc(C(=O)COc2ccc(C)nc2[N+](=O)[O-])c1C	> 35.9 µM (inactive)
O=C(OCc1ccccc1)c1ccc(NCc2cc(O)ccc2O)cc1	inactive
O=S(=O)(/C(=C\c1ccc(C(F)(F)F)cc1)c1nc2ccccc2[nH]1)c1ccccc1	> 12 µM (inactive)
C=CCOn1c(C)c(C(C)=O)c2c3nonc3ccc21	4.12 µM
O=C(Nc1cccc(C(F)(F)F)c1)Nc1nnc([C@@H]2C[C@H](O)[C@@H](CO)O2)s1	5.86 µM
O=C(Nc1nc2cc3c(cc2s1)OCCO3)C1=COCCO1	inactive
O=C(Nc1cccnc1)c1ccc(C(=O)Nc2cccnc2)cc1	> 35.9 µM (inactive)
C=CCn1c(O)c(C(C)=NCc2cc(OC)cc(OC)c2)c(=O)[nH]c1=O	7.73 µM
COc1ccc(C)cc1NS(=O)(=O)c1ccc(NC(=O)CN(c2cc([N+](=O)[O-])ccc2C)S(C)(=O)=O)cc1	inactive
O=C(COC(=O)c1ccc[nH]c1=O)Nc1ccc(N2CCCCC2)cc1	2.9 µM
COc1ccc2[nH]c(=O)c(CN(CCN3CCCC3)C(=O)Nc3ccccc3Cl)cc2c1	inactive
CC(C)(C)c1cc(C(=O)N/N=C/c2ccc(O)cc2)n(-c2ccccc2)n1	> 35.9 µM (inactive)
CC(=O)c1cccc(-c2csc3ncnc(Sc4nnnn4C)c23)c1	inactive
C=C1C(=O)[C@]23C[C@H]1CCC2[C@@]1(C)C(C[C@@H]3O)[C@](C)(C(=O)OC)CC[C@@H]1O (some centres not stated)	8.33 µM
C(=NNc1ccc2ccccc2n1)c1ccccn1	inactive
Cc1ccc(-n2c(Cl)c(Cl)nc(Cl)c2=O)cc1	inactive
COc1ccc(COC(=O)C2=C(C)NC(=O)NC2c2ccc(F)cc2)cc1 (configuration not stated)	7.71 µM
COc1ccc(C(C(=O)NC2CCCCC2)N(C(=O)CCl)c2ccc(OC)cc2)cc1 (configuration not stated)	7.79 µM
Cc1ccc(NC(=O)c2cc(C)n(-c3ccccc3)c2C)cc1	> 35.9 µM (inactive)
CCn1ccnc1CN(C)Cc1cn[nH]c1-c1ccc(OC)c(F)c1	4.91 µM

Compound	IC50
O=C(N/N=C/c1cc(Br)c(Br)s1)c1ccncc1	8.67 µM
CC(C)N(c1ccccc1)c1ccc(NC(=O)CCl)cc1	inactive
Clc1ccc(-c2csc3ncnc(NCCN4CCOCC4)c23)cc1	8.15 µM
CC(=O)OCCN1c2ccccc2Sc2cnccc21	5.67 µM
O=c1[nH]c2ccccc2n1C1CCN(C(c2cccc3ccccc23)c2nnnn2-c2ccc3c(c2)OCCO3)CC1 (configuration not stated)	inactive
CCOc1cc(C(N)=O)cc(Br)c1OC	5.79 µM
Nc1nccc(-c2ccc(-n3cnc4ccccc43)cc2)n1	1.91 µM
O=C(NCCCn1ccnc1)c1ccc(N2CCCCCC2)c([N+](=O)[O-])c1	inactive
COc1cccc(CNc2ncnc3ccc(-c4c(C)noc4C)cc23)c1	inactive
COc1cc(/C=C2\CC(C(C)(C)C)C/C(=C\c3cc(OC)c(OC)c(OC)c3)C2=O)cc(OC)c1OC (configuration not stated)	> 35.9 µM (inactive)
Cc1c(CC(=O)NCCCC(=O)O)c(=O)oc2cc3c(cc12)CCC(C)(C)O3	7.52 µM
CCN(c1cccc(C)c1)c1ncnc2nc[nH]c12	inactive
CCC(=O)N1CCN(c2ccnc3cc(Cl)ccc23)CC1	8.04 µM
COc1cc2c(ccc3cc(OC)c(OC)c(O)c32)cc1O	inactive
Cc1cccc(NC(=O)c2cc(Cl)ccc2[N+](=O)[O-])c1	5.61 µM
NC(=S)NN=Cc1nccc2c(N)cccc12	2.42 µM
CC(=O)NC(c1cc(Cl)c2cccnc2c1O)C(C)C (configuration not stated)	4.54 µM
CCOc1ccccc1-n1c(SCC(=O)Nc2ccccc2C(=O)O)nc2ccccc2c1=O	> 35.9 µM (inactive)
C(=N\Nc1nc2ccccc2[nH]1)/c1cccc2cccnc12	9.18 µM
COc1cccc(-c2nnc3sc(C4CCCCC4)nn23)c1	1.73 µM
COc1cc(C(=O)OCC(=O)Nc2sccc2C(N)=O)cc(OC)c1OC	> 35.9 µM (inactive)
COc1cccc(/C=N/Nc2ccc([N+](=O)[O-])cn2)c1O	inactive

Compound	IC50
O=C(N/N=C\c1ccc([N+](=O)[O-])o1)C1COc2ccccc2O1 (configuration not stated)	> 35.9 µM (inactive)
NC(=O)c1cc(Sc2ccccc2)nc2ccccc12	3.53 µM
COc1cccc(NC(=O)CSc2nnc(-c3cc(C)n(-c4ccccc4)c3C)o2)c1	> 35.9 µM (inactive)
COC(CN(C(=O)CCl)C(C(=O)NC1CCCCC1)c1ccccc1C)OC (configuration not stated)	6.18 µM
O=C(COc1ccc(Cl)cc1)Nc1ccc(C(=O)NCc2cccnc2)cc1	inactive
COc1cc2oc(=O)cc(-c3ccc(-c4ccc(CO)cc4)cc3)c2c(OC)c1OC	4.57 µM
CCCS(=O)(=O)Nc1ccc(Nc2c3ccccc3nc3ccccc23)c(OC)c1	0.605 µM
CN(C)c1ccc(C(=S)Nc2ccccc2)cc1	> 35.9 µM (inactive)
Cc1cc(/C=C2\Cc3ccccc3C2=O)c(C)n1-c1ccccc1	> 35.9 µM (inactive)
CCOc1ccc(/C=C2\SC(=S)N(CCCC(=O)NCCCN3CCOCC3)C2=O)cc1	inactive
Nc1nc(=S)c2ncn([C@@H]3O[C@H](CO)[C@@H](O)[C@H]3O)c2[nH]1	2.55 µM
COc1cc(C(=O)N/N=C(\c2ccccc2)c2ccccn2)cc(OC)c1OC	inactive
COc1cc(C2c3cc4c(cc3C(OC3OC5COC(c6cccs6)OC5C(O)C3O)C3COC(=O)C23)OCO4)cc(OC)c1O (configuration not stated)	0.093 µM
Cc1nc2c(-c3ccc(Cl)cc3)cnn2c(N)c1-c1ccc(F)cc1	> 35.9 µM (inactive)
CN1C(=O)C2(C(C#N)=C(N)N(c3cc(Cl)cc(Cl)c3)C3=C2C(=O)CC(C)(C)C3)c2ccccc21 (configuration not stated)	4.34 µM
COc1cc2c(c(OC)c1OC)-c1ccc(SC)c(=O)cc1C(NC=O)CC2 (configuration not stated)	inactive
Cc1c(Cl)cccc1NC(=O)Nc1ccccc1C(N)=O	> 35.9 µM (inactive)
Cc1ccc2nc(C(F)(F)F)c(C#N)c(N)c2c1	inactive
NC(=S)N/N=C1\CCOc2ccc(Cl)cc21	6.9 µM
O=C(c1ccncc1)N(Cc1cc2ccccc2[nH]c1=O)C1CCCCC1	5.82 µM
COc1ccc(Nc2ccncc2[N+](=O)[O-])cc1	5.32 µM
C=CCOc1ccc(/C=C2\SC(=S)N(CCC(=O)O)C2=O)cc1	inactive

Compound	IC50
O=C(NCCc1ccccc1)c1ccc2c(c1)OCCO2	9.59 µM
CCOC(=O)C(=CNc1ccc(NC2=NCC(C)S2)cc1)C(=O)OCC (configuration not stated)	3.32 µM
CNc1ncnc(Sc2nc(N)nc3nc[nH]c23)c1[N+](=O)[O-]	4.17 µM
CO[C@@]12[C@@H]3N[C@@H]3CN1C1=C(C(=O)C(N)=C(C)C1=O)[C@@H]2COC(N)=O	> 35.8 µM (inactive)
O=C(OCCC12CC3CC(CC(C3)C1)C2)c1ccc(NCc2cc(O)ccc2O)cc1	4.38 µM
NC(=O)c1sc2nc3c(c(-c4ccco4)c2c1N)CCC3	1.12 µM
CS(=O)(=O)c1ccc(Sc2nc3ccccc3s2)c([N+](=O)[O-])c1	> 35.9 µM (inactive)
S=C(Nc1ccccc1)Nc1ccc(OCc2ccc(Cl)cc2Cl)cc1	4.36 µM
CC(=O)c1cccc(NC(=O)Nc2ccc3c(c2)N(C)C(=O)CS3)c1	> 12 µM (inactive)
Cc1nc(N2CCC(C(N)=O)CC2)c2c(-c3cccs3)csc2n1	6.94 µM
NC(=S)N/N=C1\CCSc2ccc(Cl)cc21	3.94 µM
C[C@@H](C(=O)Nc1ccc2c(c1)OCCO2)n1c(=O)[nH]c2ccccc2c1=O	> 35.9 µM (inactive)
CC(=O)N1CCN(c2ncnc3ccccc23)CC1	8.94 µM
Cc1cccc(Oc2sc(C(=O)c3ccccc3)c(N)c2C#N)c1	8.09 µM
CC(=O)/C(N=Nc1ccc2c(c1)OCCO2)=C(\C)O	> 35.9 µM (inactive)
C/C(=N\NC(=S)Nc1cc(S(=O)(=O)N2CCOCC2)ccc1Cl)c1ccccc1F	> 35.9 µM (inactive)
COc1cccc2c1C(=N)c1c(O)c3c(c(O)c1C2=O)CC(O)(C(C)=O)CC3OC1CC(N)C(O)C(C)O1 (configuration not stated)	> 35.9 µM (inactive)
Cc1cc2nccc(-c3ccncc3)n2n1	inactive
NNC(=O)c1cc2ccccc2cc1O	7.35 µM
CC1(C)N=C(N)N=C(N)N1CCCCc1ccccc1	3.98 µM
Cc1ccc(-n2c(C)cc(C(=O)COc3cccnc3[N+](=O)[O-])c2C)cc1	> 35.9 µM (inactive)
CC[C@@]1(O)C(=O)OCc2c1cc1n(c2=O)Cc2cc3c(NC(=O)CN)cccc3nc2-1	1.75 µM

Compound	IC50
O=c1[nH]cnc2c1nnn2C1OC(CO)C(O)C1O (configuration not stated)	4.66 µM
O=C(N/N=C(\c1ccccc1)c1ccccn1)c1ccccc1Cl	inactive
CN(C)/C=C/C(=O)c1ccc2noc(-c3ccccc3)c2c1	3.72 µM
CNC(=O)c1cccn(Cc2ccc(C(F)(F)F)cc2)c1=O	> 35.8 µM (inactive)
O=S(=O)(c1ccc(F)cc1)c1snnc1-c1ccccc1	inactive
Cc1ncc(CO)c(/C=N/NC(=O)c2cc3c(s2)CCCC3)c1O	7.15 µM
c1ccc(-c2nnc(-c3ccccn3)nc2NC2CCCCC2)cc1	3.94 µM
O=c1[nH]c2ccccc2n1C1CCN(C(c2cc3ccccc3o2)c2nnnn2Cc2ccccc2)CC1 (configuration not stated)	inactive
O=c1[nH]c2ccccc2n1C1CCN(C(c2ccccc2)c2nnnn2Cc2ccccc2)CC1 (configuration not stated)	inactive
COC(=O)c1cc(S(=O)(=O)NCCc2ccc(Cl)cc2)c[nH]1	5.72 µM
Cc1ccc(N(CCC#N)C(=O)CCl)cc1C	8.64 µM
Fc1ccccc1-c1csc(=Nc2cccnc2)n1CCCn1ccnc1	5.27 µM
O=C(CNc1cccc([N+](=O)[O-])c1)N/N=C/c1ccc([N+](=O)[O-])o1	inactive
c1csc(Cc2nn3c(-c4ccncc4)nnc3s2)c1	8.11 µM
O=C(NC1CCCCC1)C(c1cccnc1)N(C(=O)CCl)c1cccc(Cl)c1 (configuration not stated)	3.1 µM
Cc1sc2ncnc(N3CCC(C(=O)Nc4ccccc4C(C)(C)C)CC3)c2c1C	5.75 µM
CC(C)(C)c1ccc(Oc2ccc(N)cn2)cc1	inactive
CS(=O)c1nc(-c2ccc(Br)cc2)cc(-c2ccccc2)c1C#N (configuration not stated)	inactive
CN[C@H]1CCc2cc(OC)c(OC)c(OC)c2-c2ccc(OC)c(=O)cc21	> 35.9 µM (inactive)

Reference: PubChem BioAssay AID602166 (The Scripps Research Institute Molecular Screening Center, 2012)
